This is an account of results in patent US11445726B2, “Pyridinium salt and pest control agent” (Nippon Soda Co., Ltd., priority 2017, dated 2022).

What all share (type): in vivo
One test has as its system Tetranychus urticae. In words: Efficacy test against Tetranychus urticae (spray on kidney bean plants). The conditions noted are these: 125 ppm spray on kidney bean plants, adult females removed after 3 days, surviving individuals 10 days after spraying. An excerpt: (§1) 5 parts by weight of the compound of the present invention, 93.6 parts by weight of dimethylformamide, and 1.4 parts by weight of polyoxyethylene alkylaryl ether were mixed and dissolved to prepare an emulsion (1) containing 5% of an active ingredient.
98.6 parts by weight of dimethylformamide, and 1.4 parts by weight of polyoxyethylene alkylaryl ether were mixed and dissolved to prepare an emulsion (11) containing no active ingredient.
Kidney bean plants were raised in No. 3 pots, and 8 adult females of T. urticae from Aomori Prefecture were inoculated on primary leaves. The emulsion (I) was diluted with water so that the concentration of the compound of the present invention was 125 ppm. The diluent was sprayed on the kidney bean plants (treated group).
On the same day, the emulsion (11) was diluted 400 times with water. The diluent was sprayed on the kidney bean plants (untreated group).
The above No. 3 pots were left to stand in a thermostatic chamber at a temperature of 25° C. and a humidity of 65% during the test period. The inoculated adult females of T. urticae were removed with an aspirator 3 days after spraying. Eggs were laid on the leaves. The number of surviving individuals was examined 10 days after spraying, and the control rate was calculated according to the following formula. The test was repeated twice. Control rate (%)=100×[1−Nt/Nc] […]

For test [1], the system named is benzoylurea-based insecticide-resistant Helicoverpa armigera. In words: Efficacy test against benzoylurea-based insecticide-resistant Helicoverpa armigera. The conditions noted are these: 125 ppm, cabbage leaves immersed, second instar larvae, 3 days. On the procedure: as §1
The emulsion (I) was diluted with water so that the concentration of the compound of the present invention was 125 ppm. Cabbage leaves were immersed in the diluent for 30 seconds. The cabbage leaves were air dried and placed in a petri dish, and 8 second instar larvae of benzoylurea-based insecticide-resistant H. armigera were inoculated.
(§2) The petri dish was left to stand in a thermostatic chamber at a temperature of 25° C. and a humidity of 60% during the test period. Mortality was evaluated when 3 days passed since the release of the insects, and the insecticidal rate was calculated. The test was repeated twice.

For a further test, the system named is Spodoptera litura. In words: Efficacy test against Spodoptera litura (cabbage leaf dipping). The conditions noted are these: 125 ppm, cabbage leaves immersed, second instar larvae, 6 days after release. On the procedure: as §1
The emulsion (1) was diluted with water so that the concentration of the compound of the present invention was 125 ppm. Cabbage leaves were immersed in the diluent for 30 seconds. The cabbage leaves were placed in a petri dish, and five second instar larvae of S. litura were released. The petri dish was left to stand in a thermostatic chamber at a temperature of 25° C. and a humidity of 60% during the test period. Mortality was evaluated when 6 days passed since the release of the insects, and the insecticidal rate was calculated. The test was repeated twice.

Another test deals with Plutella xylostella. In words: Efficacy test against Plutella xylostella (cabbage leaf dipping). The conditions noted are these: 125 ppm, cabbage leaves immersed, second instar larvae, 3 days after release. On the procedure:
as §1
The emulsion (I) was diluted with water so that the concentration of the compound of the present invention was 125 ppm. Cabbage leaves were immersed in the diluent for 30 seconds. The cabbage leaves were air dried and placed in a petri dish, and five second instar larvae of P. xylostella were released. The petri dish was left to stand in a thermostatic chamber at a temperature of 25° C. and a humidity of 60% during the test period. Mortality was evaluated when 3 days passed since the release of the insects, and the insecticidal rate was calculated. The test was repeated twice.

In test [2] the test system is diamide-based insecticide-resistant Plutella xylostella. In words: Efficacy test against diamide-based insecticide-resistant Plutella xylostella. The conditions noted are these: 125 ppm, cabbage leaves immersed, second instar larvae, 3 days. On the procedure:
as §1
The emulsion (I) was diluted with water so that the concentration of the compound of the present invention was 125 ppm. Cabbage leaves were immersed in the diluent for 30 seconds. The cabbage leaves were air dried and placed in a petri dish, and five second instar larvae of diamide-based insecticide-resistant P. xylostella were released.
as §2

A further test has as its system Thrips palmi. In words: Efficacy test against Thrips palmi (spray on kidney bean leaf piece). The conditions noted are these: 125 ppm spray, first instar larvae, 2 days. The protocol: as §1
1% agar was poured into a plastic petri dish (90 mm diameter), and a primary leaf piece of a kidney bean plant was placed thereon. 15 first instar larvae of T. palmi were inoculated thereon. The emulsion (I) was diluted with water so that the concentration of the compound of the present invention was 125 ppm. The diluent was sprayed on the leaf piece of the kidney bean plant. The petri dish was left to stand in a thermostatic chamber at a temperature of 25° C. and a humidity of 60% during the test period. Mortality of T. palmi was examined 2 days after that, and the insecticidal rate was calculated. The test was repeated twice.

In a further test the test system is Mythimna separata. In words: Efficacy test against Mythimna separata (maize leaf dipping). The conditions noted are these: 125 ppm, maize leaf pieces immersed, second instar larvae, 6 days after release. The protocol:
as §1
The emulsion (1) was diluted with water so that the concentration of the compound of the present invention was 125 ppm. Maize leaf pieces were immersed in the diluent for 30 seconds. The maize leaf pieces were placed in a petri dish, and five second instar larvae of M. separata were released.
The petri dish was left to stand in a thermostatic chamber at a temperature of 25° C. and a humidity of 60% during the test period. Mortality was evaluated when 6 days passed since the release of the insects, and the insecticidal rate was calculated. The test was repeated twice.

As to `O=C(N[n+]1ccccc1)c1ccc(Cl)cc1` [comparative compound A], the “control rate against T. urticae” value in the test with Tetranychus urticae stood at 100%. In test [1], the “insecticidal rate against benzoylurea-based insecticide-resistant H. armigera” value came out at 0%. In addition, the “insecticidal rate against S. litura” value in the test on Spodoptera litura was 0%. Besides, in the test on Plutella xylostella, the “insecticidal rate against P. xylostella” value is 0%. The “insecticidal rate against diamide-based insecticide-resistant P. xylostella” value in test [2] is listed as 0%. Moreover, the “insecticidal rate against T. palmi” value in the test on Thrips palmi came to 0%. In addition, the “insecticidal rate against M. separata” value with Mythimna separata stood at 0%.
